Reference: patent US7968107B2, “Oil-based suspension concentrates” (Bayer Cropscience AG, priority 2004, dated 2011)

Assay: Penetrants at the level of the cuticle (desorption method, tracer mobility with and without additive)
Conditions: mobility of radiolabelled weak organic acid tracer in peach leaf cuticle; receptor buffer pH 7
Text: Additives which act as penetrants at the level of the cuticle may be referred to below as accelerator additives (cf. Schönherr and Baur, 1994, Pesticide Science 42, 185-208). The feature of accelerator additives is their ability to penetrate from the aqueous spray liquor and/or from the spray covering into the cuticle and thereby to increase the mobility of active substances in the cuticle. Other additives such as polyethylene glycol, in contrast, act only in the spray covering (via the liquid phase) or act only as wetting agents, such as sodium dodecyl sulphate, for example.
This test determines the influence of additives on the penetration properties of other substances at the level of the cuticle. The mobility of the test substance in the cuticle is measured with and without an additive, by way of a desorption method. The method is published in detail in the literature (Baur et al., 1997, Pesticide Science, 51, 131-152) and only the principles and any deviations are described below.
As a test substance with the function of a tracer a selection was made here of a radiolabelled weak organic acid. Plant material used comprised the enzymatically isolated leaf cuticles of the top face of peach leaves from outdoor trees. The cuticles were installed in specially manufactured stainless steel diffusion cells. The tracer, in a citrate buffer at a pH of 3 in the dissolved state, was applied to the side originally facing the inside of the leaf. This inner side readily takes up the small radioactive amount of the tracer in the undissociated acid form. Subsequently this inner side was covered and maintained at 100% atmospheric humidity. The morphological outer side of the leaf cuticle, normally exposed to the air, was then contacted with a buffer (pH 7), with the receptor solution, and the desorption was started. The penetrated acid form of the test substance is dissociated by the receptor and the desorption follows first-order kinetics. The desorption constant is proportional to the mobility of the tracer in the cuticle. […]

| Substance | Average effect (ratio of desorption slopes with additive to without additive) |
| --- | --- |
| CH3—(CH2)8—O—(-EO—)8—(—BO—)2—CH3 [Ie-2] | 89.1 |
| CH3—(CH2)10—O—(-EO—)6—(—BO—)2—CH3 [Ie-1] | 78.4 |
| isotridecyl-(6) ethoxylate [Isotridecyl-(6) ethoxylate, open, reference compound] | 42.3 |
